Experimental data taken from patent US20250152661A1, “NOVEL COMBINATION TREATMENT REGIMEN OF BACTERIAL INFECTIONS” (BONE SUPPORT AB, priority 2022, published 2025).
Values after ≈ are worked out from the molar mass of the structure shown. Where two headings read alike, the source gives them in different places.

Experiments:
S. aureus ATCC 25923 = test: MIC values predetermined using MALDI-TOF MS system (Vitek MS); type: cell-based, Staphylococcus aureus
[1] = test system: S. aureus clinical strain P-3; test: as above; type: cell-based, Staphylococcus aureus

CO[C@H]1/C=C/O[C@@]2(C)Oc3c(C)c(O)c4c(O)c(c(/C=N/N5CCN(C)CC5)c(O)c4c3C2=O)NC(=O)/C(C)=C\C=C\[C@H](C)[C@H](O)[C@@H](C)[C@@H](O)[C@@H](C)[C@H](OC(C)=O)[C@@H]1C [RIF, rifampicin]
MIC (S. aureus ATCC 25923; Staphylococcus aureus, ATCC25923, S. aureus ATCC 25923, read-out: MIC): 0.008 µg/mL (≈ 0.00972 µM)
MIC ([1]; Staphylococcus aureus, S. aureus clinical strain P-3, read-out: MIC): 0.008 µg/mL (≈ 0.00972 µM)

CN[C@H](CC(C)C)C(=O)N[C@H]1C(=O)N[C@@H](CC(N)=O)C(=O)N[C@H]2C(=O)N[C@H]3C(=O)N[C@H](C(=O)N[C@H](C(=O)O)c4cc(O)cc(O)c4-c4cc3ccc4O)[C@H](O)c3ccc(c(Cl)c3)Oc3cc2cc(c3O[C@@H]2O[C@H](CO)[C@@H](O)[C@H](O)[C@H]2O[C@H]2C[C@](C)(N)[C@H](O)[C@H](C)O2)Oc2ccc(cc2Cl)[C@H]1O [VAN, Vancomycin]
MIC (S. aureus ATCC 25923; Staphylococcus aureus, ATCC25923): 2 µg/mL (≈ 1.38 µM)
MIC ([1]; Staphylococcus aureus): 1 µg/mL (≈ 0.69 µM)

gentamicin
MIC (S. aureus ATCC 25923; S. aureus ATCC 25923): 0.064 µg/mL
MIC ([1]; S. aureus clinical strain P-3): 0.5 µg/mL
